Where “and” joins values, the source holds several entries; their conditions need not be identical. Equal entries are not always repeated. Inconclusive results and toxic doses are left out. Rule as the data show it: active = T/C of 150% or more; inactive = T/C below 125%.
System: L1210 leukemia ip in BDF1 mice, survival T/C
Assay: NCI In Vivo Anticancer Drug Screen. Data for tumor model L1210 Leukemia (intraperitoneal) in B6D2F1 (BDF1) mice
Settings: endpoint: mean survival time, higher = longer survival
In short: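 Read-out is survival time, reported as the treated-group measurement over the vehicle-control measurement.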

[1] = dose: 100.0 mg/kg/injection, schedule: Q01DX001 (ip), vehicle: saline
[2] = dose: 100.0 mg/kg/injection, schedule: Q04DX003 (ip), vehicle: saline
[3] = dose: 200.0 mg/kg/injection, schedule: Q01DX001 (ip), vehicle: saline
[4] = dose: 200.0 mg/kg/injection, schedule: Q04DX003 (ip), vehicle: saline
[5] = dose: 400.0 mg/kg/injection, schedule: Q01DX001 (ip), vehicle: saline
[6] = dose: 400.0 mg/kg/injection, schedule: Q04DX003 (ip), vehicle: saline
[7] = dose: 25.0 mg/kg/injection, schedule: Q04DX003 (ip), vehicle: saline with Tween-80
[8] = dose: 200.0 mg/kg/injection, schedule: Q04DX002 (ip), vehicle: saline with Tween-80
[9] = dose: 400.0 mg/kg/injection, schedule: Q04DX002 (ip), vehicle: saline with Tween-80
[10] = dose: 100.0 mg/kg/injection, schedule: Q01DX001 (ip), vehicle: Klucel (hydroxypropylcellulose) (HPC)
[11] = dose: 100.0 mg/kg/injection, schedule: Q01DX009 (ip), vehicle: Klucel (hydroxypropylcellulose) (HPC)
[12] = dose: 200.0 mg/kg/injection, schedule: Q01DX001 (ip), vehicle: Klucel (hydroxypropylcellulose) (HPC)
[13] = dose: 200.0 mg/kg/injection, schedule: Q01DX009 (ip), vehicle: Klucel (hydroxypropylcellulose) (HPC)
[14] = dose: 400.0 mg/kg/injection, schedule: Q01DX001 (ip), vehicle: Klucel (hydroxypropylcellulose) (HPC)
[15] = dose: 400.0 mg/kg/injection, schedule: Q01DX009 (ip), vehicle: Klucel (hydroxypropylcellulose) (HPC)
[16] = dose: 100.0 mg/kg/injection, schedule: Q01DX009 (ip), vehicle: saline
[17] = dose: 200.0 mg/kg/injection, schedule: Q01DX009 (ip), vehicle: saline
[18] = dose: 400.0 mg/kg/injection, schedule: Q01DX009 (ip), vehicle: saline
[19] = dose: 100.0 mg/kg/injection, schedule: Q01DX001 (ip), vehicle: saline with Tween-80
[20] = dose: 200.0 mg/kg/injection, schedule: Q01DX001 (ip), vehicle: saline with Tween-80
[21] = dose: 400.0 mg/kg/injection, schedule: Q01DX001 (ip), vehicle: saline with Tween-80
[22] = dose: 100.0 mg/kg/injection, schedule: Q04DX003 (ip), vehicle: saline with Tween-80
[23] = dose: 200.0 mg/kg/injection, schedule: Q04DX003 (ip), vehicle: saline with Tween-80
[24] = dose: 400.0 mg/kg/injection, schedule: Q04DX003 (ip), vehicle: saline with Tween-80
[25] = dose: 100.0 mg/kg/injection, schedule: Q01DX009 (ip), vehicle: saline with Tween-80
[26] = dose: 200.0 mg/kg/injection, schedule: Q01DX009 (ip), vehicle: saline with Tween-80
[27] = dose: 400.0 mg/kg/injection, schedule: Q01DX009 (ip), vehicle: saline with Tween-80
[28] = dose: 50.0 mg/kg/injection, schedule: Q01DX009 (ip), vehicle: Klucel (hydroxypropylcellulose) (HPC)
[29] = dose: 100.0 mg/kg/injection, schedule: Q04DX003 (ip), vehicle: Klucel (hydroxypropylcellulose) (HPC)
[30] = dose: 200.0 mg/kg/injection, schedule: Q04DX003 (ip), vehicle: Klucel (hydroxypropylcellulose) (HPC)
[31] = dose: 50.0 mg/kg/injection, schedule: Q01DX001 (ip), vehicle: saline

Measured: T/C

COC(=O)C1=C(C(=O)OC)C2(OC(C)=O)C=C(OC(C)=O)C1C(C)(C)C2 (centres undefined)
inactive: [1] 94 % of control | dose: 100.0 mg/kg/injection, schedule: Q01DX009 (ip), vehicle: acetone 93 % of control | [2] 111 % of control | [3] 102 % of control | dose: 200.0 mg/kg/injection, schedule: Q01DX009 (ip), vehicle: acetone 90 % of control | [4] 103 % of control | [5] 102 % of control | dose: 400.0 mg/kg/injection, schedule: Q01DX009 (ip), vehicle: acetone 88 % of control | [6] 104 % of control

CC(C)(C)N=Cc1ccccc1O.CC(C)(C)N=Cc1ccccc1O.[Cu]
inactive: dose: 6.25 mg/kg/injection, schedule: Q04DX003 (ip), vehicle: saline with Tween-80 94 % of control | dose: 12.5 mg/kg/injection, schedule: Q04DX003 (ip), vehicle: saline with Tween-80 104 % of control | [7] 96 % of control

Oc1ccc2cc(Br)ccc2c1-c1c(O)ccc2cc(Br)ccc12
inactive: dose: 100.0 mg/kg/injection, schedule: Q04DX002 (ip), vehicle: saline with Tween-80 97 % of control | [8] 94 % of control | [9] 87 % of control

COc1ccc(C(C#N)CC(=O)c2ccc(OCc3ccccc3)c(OC)c2)cc1OC (centres undefined)
inactive: dose: 75.0 mg/kg/injection, schedule: Q01DX009 (ip), vehicle: other 88 % of control | [2] 90 % of control | dose: 150.0 mg/kg/injection, schedule: Q01DX009 (ip), vehicle: other 90 % of control | [4] 96 % of control | dose: 300.0 mg/kg/injection, schedule: Q01DX009 (ip), vehicle: other 95 % of control | [6] 94 % of control | dose: 600.0 mg/kg/injection, schedule: Q01DX009 (ip), vehicle: other 102 % of control

Cc1cc(N(c2c(Cl)c(Cl)c(NS(=O)(=O)c3ccccc3)c(Cl)c2Cl)S(=O)(=O)c2ccccc2)cc(C)c1N
inactive: [10] 98 % of control | [11] 100 % of control | [12] 95 % of control | [13] 95 % of control | [14] 90 % of control | [15] 94 % of control

CCOC(=O)C(C)C(=O)C(=O)N=C(N)N (centres undefined)
inactive: [16] 102 % of control | [2] 101 % of control and 103 % of control | [17] 100 % of control | [4] 97 % of control | [18] 100 % of control | [6] 103 % of control and 104 % of control

O=C(/C=C(\c1ccccc1)C1C2C=CC(C2)C1c1ccccc1)c1ccccc1 (centres undefined)
inactive: [19] 97 % of control | [20] 95 % of control | [21] 96 % of control

N#Cc1ccc(C#N)c2ccccc12
inactive: [22] 96 % of control | [23] 98 % of control | [24] 96 % of control

CC(CC(=O)O)NC(=O)OCc1ccccc1 (centres undefined)
inactive: [19] 101 % of control | [25] 100 % of control and 107 % of control | [22] 103 % of control | [20] 98 % of control | [26] 97 % of control and 90 % of control | [23] 94 % of control | [21] 95 % of control | [27] 100 % of control and 90 % of control | [24] 97 % of control

Cc1cccc(N=P(c2ccccc2)(c2ccccc2)c2ccccc2)c1
inactive: [28] 96 % of control | [11] 88 % of control | [29] 95 % of control | [30] 96 % of control

O=C(O)COc1ccc(F)c(F)c1F
inactive: dose: 100.0 mg/kg/injection, schedule: Q04DX002 (ip), vehicle: other 107 % of control | dose: 200.0 mg/kg/injection, schedule: Q04DX002 (ip), vehicle: other 100 % of control | dose: 400.0 mg/kg/injection, schedule: Q04DX002 (ip), vehicle: other 91 % of control

CCOP(=O)(OCC)OCc1cnc(SC)nc1N
inactive: [31] 99 % of control | [1] 108 % of control

COc1ccc(N=C(N)N=C(N)N)cc1
inactive: [31] 111 % of control | [1] 104 % of control | [16] 91 % of control | [3] 95 % of control | [17] 92 % of control

[O-][N+](=C1c2ccccc2-c2ccccc21)c1ccccc1
inactive: [2] 94 % of control | [4] 92 % of control | [6] 94 % of control

O=C(O)C1CCCCC1C(=O)O (centres undefined)
inactive: [10] 103 % of control | [29] 101 % of control | [2] 95 % of control | [12] 91 % of control | [30] 97 % of control | [4] 98 % of control | [14] 93 % of control | dose: 400.0 mg/kg/injection, schedule: Q04DX003 (ip), vehicle: Klucel (hydroxypropylcellulose) (HPC) 97 % of control | [6] 98 % of control

CCOC(=O)c1ccc(NC(=O)Nc2ccc(NC(C)=O)cc2)cc1
inactive: dose: 25.0 mg/kg/injection, schedule: Q01DX009 (ip), vehicle: saline with Tween-80 89 % of control | dose: 25.0 mg/kg/injection, schedule: Q04DX002 (ip), vehicle: saline with Tween-80 86 % of control | [7] 88 % of control | dose: 50.0 mg/kg/injection, schedule: Q01DX001 (ip), vehicle: saline with Tween-80 88 % of control | dose: 50.0 mg/kg/injection, schedule: Q01DX009 (ip), vehicle: saline with Tween-80 89 % of control | dose: 50.0 mg/kg/injection, schedule: Q04DX002 (ip), vehicle: saline with Tween-80 86 % of control and 88 % of control | dose: 50.0 mg/kg/injection, schedule: Q04DX003 (ip), vehicle: saline with Tween-80 86 % of control | [19] 88 % of control | [25] 91 % of control | [20] 93 % of control | [26] 91 % of control | [8] 99 % of control | [23] 90 % of control | [9] 106 % of control

CCNc1nc(C)c2nc(C(=O)OCC)c(=O)[nH]c2n1
inactive: [28] 95 % of control | [11] 95 % of control | [13] 98 % of control

Nc1nc(N)nc(CCCCCc2nc(N)nc(N)n2)n1
inactive: dose: 50.0 mg/kg/injection, schedule: Q01DX001 (ip), vehicle: carboxymethylcellulose (CMC) 93 % of control | dose: 100.0 mg/kg/injection, schedule: Q01DX001 (ip), vehicle: carboxymethylcellulose (CMC) 93 % of control | dose: 400.0 mg/kg/injection, schedule: Q01DX001 (ip), vehicle: carboxymethylcellulose (CMC) 95 % of control

N#CCCN(CCC#N)c1ccccc1
inactive: [16] 94 % of control | [17] 102 % of control | [18] 107 % of control

O=C(O)c1ccc(-c2ccc(O)cc2)cc1
inactive: [11] 98 % of control | [13] 101 % of control | [15] 102 % of control

c1ccc(-c2csc3cccc[n+]23)cc1
inactive: [22] 102 % of control

CCCCCCCCCCCCCCCCS(=O)(=O)c1ccc(S(=O)(=O)F)cc1NC(=O)C(F)(F)F
inactive: [25] 87 % of control | [22] 92 % of control | [26] 97 % of control | [23] 93 % of control | [27] 105 % of control

N=C1C(=O)C(=N)c2ccccc2-c2ccccc21
inactive: [11] 94 % of control | [13] 97 % of control | [15] 95 % of control

C=CCc1cccc(C2N(Cc3ccccc3OC)CCCN2Cc2ccccc2OC)c1O
inactive: [31] 103 % of control | [1] 100 % of control | [3] 97 % of control | [5] 97 % of control

COc1ccc(/C=N/N2CCN(/N=C/c3ccc(OC)c(O)c3)CC2)cc1O
inactive: [1] 93 % of control | [3] 87 % of control | [5] 96 % of control

N=C(N)c1ccc(-c2cc3cc(C(=N)N)ccc3s2)cc1
inactive: [2] 105 % of control

[O-][n+]1onc2ccccc21
inactive: [19] 97 % of control

Reference: PubChem BioAssay AID248 (DTP/NCI, 2004)
